These results are taken from article PMC11946255, “Extraction of Cannabinoids and Terpenes from Hemp Flowers and Leaves (Cannabis sativa L., Futura 75): Chemical Profiling and Evaluation of Anticancer Properties” (Molecules, 2025).

One assay concerns lung carcinoma A549. The assay can be described thus: Antiproliferative activity, SRB assay, A549. In kind it is cell-based, human. The note with it: for IC50 A549 / IC50: 72 h incubation, SRB, mean ± SD; for Calculated Selectivity Index SI A549: SI = IC50 MCF-10A / IC50 A549; for IC50: Homo sapiens, A549.
For assay [1], the system named is colon adenocarcinoma HT-29. The assay can be described thus: Antiproliferative activity, SRB assay, HT-29. In kind it is cell-based, human. The following applies: for IC50 HT-29 / IC50: 72 h incubation, SRB, mean ± SD; for Calculated Selectivity Index SI HT-29: SI = IC50 MCF-10A / IC50 HT-29; for IC50: Homo sapiens, HT-29.
The test system of assay [2] is normal breast epithelial MCF-10A cells. The assay can be described thus: Cytotoxicity, SRB assay, MCF-10A. In kind it is cell-based, human. The note with it: 72 h incubation, non-tumorigenic cells, mean ± SD; for IC50: Homo sapiens, MCF-10A. As to the method:
(§1) Two extracts, Futu 1 and Futu 2, were selected for the study of their antiproliferative activity against six human cancer cell lines: biphenotypic B myelomonocytic leukemia (MV4-11), lung carcinoma (A549), colon adenocarcinoma (HT-29), gastric adenocarcinoma (AGS), and breast carcinomas (MCF-7 (ER+) and MDA-MB-468 (TNBC)). Additionally, their cytotoxicity and potential safety for use were assessed on normal human breast epithelial cells (MCF-10A). This study aimed to determine the effectiveness of these extracts in inhibiting cancer cell growth while ensuring minimal toxicity to normal cells. The first extract, Futu 1, contained the highest amount of cannabinoid fraction (51.57%) among all tested extracts, and the terpene fraction consisted of 9.8% monoterpenes and 90.2% of sesquiterpenes. Futu 1 was obtained using pressurized extraction with the following process parameters: a pressure of 1 bar, a solvent mixture of hexane/ethanol (7:3, v/v), and a temperature of 25 °C. The second extract, Futu 2, was selected for its higher monoterpene content (19.6%) in the terpene fraction in comparison to sesquiterpenes (80.4%) and its 49.49% content of cannabinoids. This extract was also obtained via pressurized extraction, using a pressure of 1 bar, a solvent mixture of hexane/isopropanol (7:3, v/v), and a temperature of −55 °C. After 72 h of incubation of cancer and normal cells with cannabinoids and the extracts Futu 1 or Futu 2, antiproliferative activity was assessed using the MTT assay (for MV4-11) or the SRB assay. The percentage of cell growth inhibition was calculated and IC50 values were determined (Table 3).
(§2) Human cell lines: biphenotypic B myelomonocytic leukemia MV4-11, gastric adenocarcinoma AGS, colon adenocarcinoma HT-29, and normal breast MCF-10A cells were obtained from American Type Culture Collection (ATCC) in the United States; lung carcinoma A549 and breast cancer MCF-7 were obtained from European Collection of Authenticated Cell Cultures (ECACC). Human breast cancer MDA-MB-468 cells were obtained from Leibniz Institute DSMZ (German Collection of Microorganisms and Cell Cultures). All the cell lines were maintained at the Hirszfeld Institute of Immunology and Experimental Therapy, PAS, Wroclaw, Poland. MV4-11 and MDA-MB-468 cells were cultured in RPMI 1640 medium (IIET PAS, Wrocław, Poland) with 1.0 mM sodium pyruvate (only MV4-11) and 10% (MV4-11) or 20% (MDA-MB-468) fetal bovine serum (FBS) (all from Merck, Darmstadt, Germany). A549, HT-29, and AGS cells were cultured in RPMI 1640 + Opti-MEM (1:1) medium (IIET PAS, Wrocław, Poland, and Gibco, London, UK) supplemented with 5% FBS (Merck, Darmstadt, Germany) and 1.0 mM sodium pyruvate (only HT-29). The MCF-7 cells were cultured in Eagle medium (IIET PAS, Wrocław, Poland) supplemented with 8 microg/mL of insulin and 1% MEM NON-Essential amino acid (all Merck, Darmstadt, Germany). Normal breast epithelial MCF-10A cells were cultured in the HAM’S F-12 medium, which was supplemented with 10% Horse Serum (Gibco, London, UK), 20 ng/mL EGFh, 10 µg/mL insulin, and 0.5 µg/mL Hydrocortisone and 0.05 mg/mL Cholera Toxin from Vibrio cholerae were from Merck, Darmstadt, Germany.
The antiproliferative activity of cannabinoids (in concentrations of 1 mg/mL in methanol) and the plant extracts named Futu1 and Futu2 (the solutions were prepared by dissolving the substance in methanol to a concentration of 50 mg/mL) were tested against 6 cancer cell lines. Their cytotoxicity was also tested against one normal cell line. The tested mixtures of compounds were diluted in a culture medium to reach the final concentrations. Before adding the tested compounds (24 h prior), the cells were plated in 384-well plates (Greiner Bio-One) at a density of 1 × 10^3 (A549), 1.5 × 10^3 (MDA-MB-468, HT-29, MCF-7), or 2 × 10^3 (AGS, MCF-10A) cells per well. The MV4-11 cells were plated in 96-well plates (Corning) at a density of 5 × 10^3 cells per well. […]

The test system of assay [3] is biphenotypic B myelomonocytic leukemia MV4-11. The assay can be described thus: Antiproliferative activity, MTT assay, MV4-11. In kind it is cell-based, human. The note with it: 2 μg/mL, 72 h, compared to untreated control cells. As to the method: as §1
as §2, with “The MCF-7 cells were cultured in Eagle medium (IIET PAS, Wrocław, Poland) supplemented with 8 microg/mL of insulin and 1% MEM NON-Essential amino acid (all Merck, Darmstadt, Germany). Normal breast epithelial MCF-10A cells were cultured in the HAM’S F-12 medium, which was supplemented with 10% Horse Serum (Gibco, London, UK), 20 ng/mL EGFh, 10 µg/mL insulin, and 0.5 µg/mL Hydrocortisone and 0.05 mg/mL Cholera Toxin from Vibrio cholerae were from Merck, Darmstadt, Germany.” left out

Assay [4] concerns gastric adenocarcinoma AGS. The assay can be described thus: Antiproliferative activity, SRB assay, AGS. In kind it is cell-based, human. The note with it: for IC50 AGS / IC50: 72 h incubation, SRB, mean ± SD; for Calculated Selectivity Index SI AGS: SI = IC50 MCF-10A / IC50 AGS; for IC50: Homo sapiens.
Assay [5] relates to breast cancer MCF-7 (ER+). The assay can be described thus: Antiproliferative activity, SRB assay, MCF-7. It counts as cell-based, human. The note with it: for IC50 MCF-7 / IC50: 72 h incubation, SRB, mean ± SD; for Calculated Selectivity Index SI MCF-7: SI = IC50 MCF-10A / IC50 MCF-7; for IC50: Homo sapiens, MCF7.
Assay [6] deals with lung (A549), colon (HT-29), gastric (AGS), and breast (MCF-7, ER+) cancer cell lines. The assay can be described thus: Antiproliferative activity, SRB assay, summarised over the cancer cell lines. It counts as cell-based. The following applies: Homo sapiens; 72 h, range across the four cancer cell lines. The protocol: as §1, with “The second extract, Futu 2, was selected for its higher monoterpene content (19.6%) in the terpene fraction in comparison to sesquiterpenes (80.4%) and its 49.49% content of cannabinoids. This extract was also obtained via pressurized extraction, using a pressure of 1 bar, a solvent mixture of hexane/isopropanol (7:3, v/v), and a temperature of −55 °C.” left out, “3). […]” for “3).”
For orientation: In SRB staining, fixed cells bind dye roughly in proportion to their protein.

One may read the IC50 as the concentration that inhibits the measured activity by half. Lower therefore signals inhibition by little substance.

Converted amounts (≈) assume the structure as drawn.

Turning to `CCCCCc1cc(O)c2c(c1)OC(C)(C)[C@@H]1CCC(C)=C[C@@H]21` (relative stereo) [THC, (–)-trans-Δ^9-tetrahydrocannabinol], in the assay with lung carcinoma A549, the “IC50 A549” value is 3.94 ± 0.44 µg/mL (≈ 12.5 µM) and the “Calculated Selectivity Index SI A549” value is on record as 2.82. Also, in assay [1], the “IC50 HT-29” value is 3.73 ± 0.59 µg/mL (≈ 11.9 µM) and the “Calculated Selectivity Index SI HT-29” value is 2.98. Moreover, the “IC50 MCF-10A” value in assay [2] came to 11.13 ± 0.72 µg/mL (≈ 35.4 µM). For the same compound, the “Stimulation of MV4-11 cell growth” value in assay [3] is listed as 180%. In addition, in assay [4], the “IC50 AGS” value is 6.35 ± 1.35 µg/mL (≈ 20.2 µM) and the “Calculated Selectivity Index SI AGS” value was 1.75. Also, in assay [5], the “IC50 MCF-7” value was found to be 8.4 ± 1.26 µg/mL (≈ 26.7 µM) and the “Calculated Selectivity Index SI MCF-7” value was 1.33.
Take `CCCCCc1cc(O)c2c(c1)OC(C)(CCC=C(C)C)C=C2` (centres unmarked) [CBC, cannabichromene]: in the assay on lung carcinoma A549, half-maximal inhibition (IC50) was put at 3.26 ± 0.2 µg/mL (≈ 10.4 µM) and the “Calculated Selectivity Index SI A549” value is 3.23. In addition, in assay [1], it took 5.94 ± 1.86 µg/mL (≈ 18.9 µM) to reach half-maximal inhibition (IC50) and the “Calculated Selectivity Index SI HT-29” value is given as 1.77. Besides, the IC50 in assay [2] was determined as 10.5 ± 0.46 µg/mL (≈ 33.5 µM). Also, in assay [3], the “Stimulation of MV4-11 cell growth” value stood at 140%. Also, in assay [4], the concentration for half-maximal inhibition (IC50) is 5.53 ± 0.88 µg/mL (≈ 17.6 µM) and the “Calculated Selectivity Index SI AGS” value was 1.9. In assay [5], the midpoint of inhibition, the IC50, lay at 7.56 ± 1.52 µg/mL (≈ 24 µM) and the “Calculated Selectivity Index SI MCF-7” value is recorded as 1.39.
For `C=C(C)[C@@H]1CCC(C)=C[C@H]1c1c(O)cc(CCCCC)cc1O` [CBD, cannabidiol], the concentration for half-maximal inhibition (IC50) in assay [6] is 2.87 to 3.74 µg/mL (≈ 9.13 to 11.9 µM); with lung carcinoma A549 it was 2.87 ± 0.24 µg/mL (≈ 9.13 µM); in assay [1], 3.04 ± 0.52 µg/mL (≈ 9.67 µM); in assay [2], 10.6 ± 0.63 µg/mL (≈ 33.5 µM); in assay [4], 3.74 ± 0.28 µg/mL (≈ 11.9 µM); in assay [5] it was 3.67 ± 0.55 µg/mL (≈ 11.7 µM). The “Calculated Selectivity Index SI A549” value with lung carcinoma A549 is reported as 3.68. Further, the “Calculated Selectivity Index SI HT-29” value in assay [1] was 3.47. For the same compound, in assay [3], the “Stimulation of MV4-11 cell growth” value came out at 140%. In addition, in assay [4], the “Calculated Selectivity Index SI AGS” value is given as 2.82. Further, the “Calculated Selectivity Index SI MCF-7” value in assay [5] is 2.87.
`C=C(C)[C@@H]1CCC(C)=C[C@H]1c1c(O)cc(CCC)cc1O` [CBDV]: in the assay with lung carcinoma A549, the “IC50 A549” value was 6.22 ± 2.26 µg/mL (≈ 21.7 µM) and the “Calculated Selectivity Index SI A549” value was 1.81. Further, in assay [1], the “IC50 HT-29” value was determined as 3.6 ± 0.4 µg/mL (≈ 12.6 µM) and the “Calculated Selectivity Index SI HT-29” value is reported as 3.12. Further, the “IC50 MCF-10A” value in assay [2] was determined as 11.24 ± 0.26 µg/mL (≈ 39.2 µM). Besides, in assay [4], the “IC50 AGS” value is 8.4 ± 1.98 µg/mL (≈ 29.3 µM) and the “Calculated Selectivity Index SI AGS” value is recorded as 1.34. For the same compound, in assay [5], the “IC50 MCF-7” value worked out at 8.43 ± 2.05 µg/mL (≈ 29.4 µM) and the “Calculated Selectivity Index SI MCF-7” value is given as 1.33.
In the case of `CCCCCc1cc(O)c(C/C=C(\C)CCC=C(C)C)c(O)c1` [CBG, cannabigerol], in the assay on lung carcinoma A549, the IC50 came out at 3.71 ± 0.46 µg/mL (≈ 11.7 µM) and the “Calculated Selectivity Index SI A549” value was 2.89. Moreover, in assay [1], the IC50 is 10 ± 1.14 µg/mL (≈ 31.7 µM) and the “Calculated Selectivity Index SI HT-29” value is 1.07. In addition, the half-inhibitory concentration (IC50) in assay [2] amounted to 10.7 ± 0.71 µg/mL (≈ 33.9 µM). Besides, in assay [4], the concentration for half-maximal inhibition (IC50) is 6.11 ± 1.31 µg/mL (≈ 19.3 µM) and the “Calculated Selectivity Index SI AGS” value is on record as 1.76. For the same compound, in assay [5], the 50% inhibitory concentration (IC50) stood at 7.43 ± 1.43 µg/mL (≈ 23.5 µM) and the “Calculated Selectivity Index SI MCF-7” value was 1.45.
Regarding `CCCCCc1cc(O)c2c(c1)OC(C)(C)c1ccc(C)cc1-2` [CBN, cannabinol], in the assay on lung carcinoma A549, inhibition was half-maximal at 3.3 ± 0.15 µg/mL (≈ 10.6 µM) (IC50) and the “Calculated Selectivity Index SI A549” value was 3.27. For the same compound, in assay [1], half-maximal inhibition (IC50) required 6.07 ± 2.11 µg/mL (≈ 19.6 µM) and the “Calculated Selectivity Index SI HT-29” value is recorded as 1.78. The compound also had a half-maximal inhibitory concentration (IC50) in assay [2] of 10.8 ± 0.68 µg/mL (≈ 34.8 µM). Moreover, in assay [3], the “Stimulation of MV4-11 cell growth” value was determined as 140%. Also, in assay [4], the half-maximal inhibitory concentration (IC50) worked out at 6.18 ± 0.98 µg/mL (≈ 19.9 µM) and the “Calculated Selectivity Index SI AGS” value is 1.75. Also, in assay [5], the half-maximal inhibitory concentration (IC50) amounted to 5.79 ± 1.79 µg/mL (≈ 18.7 µM) and the “Calculated Selectivity Index SI MCF-7” value was 1.87.
